Measurements published in patent US20230218675A1, “EXOSOMES ISOLATED FROM DERMAL PAPILLA PROGENITOR CELLS, AND USE THEREOF” (CELLPARK GLOBAL, priority 2020, published 2023).

System: human hair follicles
Test: Human hair follicle organ culture, hair follicle length growth evaluation 1
Format: cell-based
Conditions: for 6 days; exosomes 1.0×10^9 particles, minoxidil 1 μM
Protocol: In order to evaluate effects of the exosomes of the present invention on human hair follicle growth, a human hair follicle organ culture test (ex vivo hair follicle organ culture) was conducted. More specifically, scalp tissues were isolated into the unit of hair follicles, and the remaining hair follicles were used after cutting the part below the sebaceous gland of the isolated hair follicles. The prepared hair follicles were treated with Examples 1 and 2, and minoxidil as a positive control, respectively, and lengths of the hair growing on the 3rd and 6th days were measured, followed by comparing the measured results to the negative control in order to evaluate a length growth and a growth cycle of human hair follicles. […] The lengths of the hair follicles grown on the 3rd and 6th days of the culture, respectively, were measured using a microscope ruler.

Nc1cc(N2CCCCC2)nc(N)[n+]1[O-] [minoxidil]
growth of hair (hair follicle length): about 1.5 mm
